Laboratory results published in the supplement of paper PMC4977894.
± gives the standard deviation of the averaged measurements.

Legend:
[1] = system: Homo sapiens (human subject panel, olfactory perception); test: perceived odor familiarity rating (rating 0-100); higher = more familiar
Procedure: (§1)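 Human olfactory psychophysics. 55 healthy subjects (after excluding 6 low performers) sniffed 1 mL of each odorant diluted in paraffin oil (vials, two dilutions per molecule, 20 molecules presented twice). Each subject rated intensity, pleasantness and familiarity on a 0-100 slider, starting at 50 and required to move. Ratings were given only when the subject reported detecting a smell; per-subject ratings are averaged over subjects.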

[2] = system: Homo sapiens (human subject panel, olfactory perception); test: perceived odor pleasantness rating (rating 0-100); higher = more pleasant
Procedure: as §1

[3] = system: Homo sapiens (human subject panel, olfactory perception); test: perceived odor intensity rating (rating 0-100); higher = stronger perceived smell
Procedure: as §1

[4] = odor dilution in paraffin oil: 1/10
[5] = odor dilution in paraffin oil: 1/1,000
[6] = odor dilution in paraffin oil: 1/100,000
[7] = odor dilution in paraffin oil: 1/10,000,000

Row | Structure (SMILES) | perceived odor familiarity rating [1, 4] | perceived odor familiarity rating [1, 5] | perceived odor pleasantness rating [2, 4] | perceived odor pleasantness rating [2, 5] | perceived odor intensity rating [3, 4] | perceived odor intensity rating [3, 5] | perceived odor familiarity rating [1, 6] | perceived odor pleasantness rating [2, 6] | perceived odor intensity rating [3, 6] | perceived odor familiarity rating [1, 7] | perceived odor pleasantness rating [2, 7] | perceived odor intensity rating [3, 7]
1 | CCCCC(C)CCC(=O)O (racemic) [(±)-4-Methyloctanoic acid] | 41.7 ± 32 | 48.6 ± 30 | 27.4 ± 25 | 29 ± 20 | 72.5 ± 25 | 67.2 ± 25 | – | – | – | – | – | –
2 | NC(Cc1ccccc1)C(=O)O (racemic) [DL-Phenylalanine (replicate)] | 48.2 ± 29 | 39.2 ± 26 | 44.6 ± 25 | 50.4 ± 23 | 66.3 ± 24 | 39.2 ± 29 | – | – | – | – | – | –
3 | NC(Cc1ccccc1)C(=O)O (racemic) [DL-Phenylalanine] | 43.4 ± 31 | 41.9 ± 29 | 38.2 ± 26 | 51.4 ± 27 | 70 ± 24 | 35.2 ± 29 | – | – | – | – | – | –
4 | O=C(O)C(O)C(O)C(=O)O (racemic) [DL-Tartaric acid] | 40.5 ± 25 | 26.4 ± 28 | 48.3 ± 20 | 52.1 ± 19 | 30.6 ± 30 | 26.4 ± 30 | – | – | – | – | – | –
5 | C=C(C)C1CC=C(C)C(=O)C1 (single isomer, unassigned; (-)) [(-)-Carvone] | 81.2 ± 24 | 77.9 ± 25 | 78.6 ± 16 | 78.2 ± 19 | 84.3 ± 15 | 72.6 ± 20 | – | – | – | – | – | –
6 | C=C1CCC2CC1C2(C)C (single isomer, unassigned; (-)) [(-)-beta-Pinene] | 62.1 ± 31 | 47.8 ± 29 | 50.5 ± 30 | 54.8 ± 22 | 74.2 ± 22 | 32.2 ± 31 | – | – | – | – | – | –
7 | CC(C)=CCCC(C)CCO (single isomer, unassigned; (-)) [(-)-citronellol] | – | 57.9 ± 31 | – | 53.5 ± 30 | – | 71.5 ± 27 | 49.6 ± 28 | 61.3 ± 22 | 41.6 ± 33 | – | – | –
8 | COc1cccc(OC)c1 [1,3-Dimethoxybenzene] | – | 54.1 ± 26 | – | 49.7 ± 26 | – | 68.4 ± 22 | 33.2 ± 27 | 45.8 ± 28 | 32.6 ± 30 | – | – | –
9 | O=C(Cc1ccccc1)Cc1ccccc1 [1,3-Diphenyl-2-propanone] | – | 49.7 ± 34 | – | 32.7 ± 29 | – | 78.1 ± 20 | 48.1 ± 30 | 43 ± 27 | 35.4 ± 28 | – | – | –
10 | SCCCCCCS [1,6-Hexanedithiol] | – | – | – | – | – | – | 51.5 ± 33 | 24.9 ± 26 | 74.8 ± 24 | 36.8 ± 29 | 40.1 ± 25 | 33.8 ± 34
11 | CC12CCC(CC1)C(C)(C)O2 [1,8-cineole] | – | 69.7 ± 25 | – | 62.5 ± 24 | – | 70.1 ± 24 | 53.5 ± 30 | 61.5 ± 25 | 45.5 ± 29 | – | – | –
12 | c1coc(Cn2cccc2)c1 [1-Furfurylpyrrole] | – | 40.7 ± 32 | – | 28.7 ± 24 | – | 76.3 ± 22 | 34.3 ± 25 | 46.8 ± 19 | 30.9 ± 29 | – | – | –
13 | C=CC(O)CCCC (configuration not stated) [1-Hepten-3-ol] | – | 41 ± 31 | – | 24.3 ± 25 | – | 83.2 ± 18 | 44.4 ± 32 | 37.3 ± 26 | 53.7 ± 31 | – | – | –
14 | CCCCCCCCCCCCCCCCO [1-Hexadecanol] | 40.1 ± 30 | 42.6 ± 27 | 43 ± 24 | 35.4 ± 24 | 43.5 ± 31 | 35.8 ± 26 | – | – | – | – | – | –
15 | COc1cc(C)ccc1C(C)C [1-Methyl-3-methoxy-4-isopropylbenzene] | – | 51.6 ± 30 | – | 43.8 ± 21 | – | 45.5 ± 28 | 42.9 ± 35 | 47.5 ± 18 | 23.1 ± 25 | – | – | –
16 | C=CC(O)CCCCC (configuration not stated) [1-Octen-3-ol] | – | 45.4 ± 32 | – | 40.3 ± 27 | – | 66.5 ± 26 | 39.4 ± 27 | 42.2 ± 20 | 37.7 ± 30 | – | – | –
17 | C=CC(CCCCC)OC(C)=O (configuration not stated) [1-Octen-3-yl acetate] | – | 35.2 ± 29 | – | 34.1 ± 22 | – | 55.9 ± 29 | 32.8 ± 27 | 42.9 ± 24 | 26.4 ± 26 | – | – | –
